Source: patent US9241958B2, “Anticoagulant antagonist and hemophilia procoagulant” (The Board of Trustees of the University of Illinois, priority 2007, dated 2016)

Columns and labels:
fresh whole blood = assay: Whole blood thromboelastometry (ROTEM), clotting initiated with dilute thromboplastin; assay type: biochemical, human
Protocol: Thromboelastography was carried out using the ROTEM® four channel system (Pentapharm, Munich, Germany) using the supplied software package. Fresh, non-anticoagulated whole blood was collected via atraumatic venipuncture using a two-syringe technique. The initial 3 ml of blood was discarded and the blood sample to be used was then drawn into a 3 ml plain plastic syringe. The blood was immediately transferred to the supplied disposable plastic cups (280 μL per cup) and thoroughly mixed with 20 μL buffer (TBS: 50 mM Tris-HCl pH 7.4, 150 mM NaCl, 0.02% NaN3) or additives in TBS. Each fresh whole blood sample was divided into 4 cups containing the following: TBS only (control), polyP75, anticoagulant drug only, or both polyP75 and anticoagulant drug. Clotting was then initiated immediately via addition of 20 μL of tissue factor containing clotting reagent (INNOVIN® diluted in TBS). Thromboelastography measurement was initiated within 120 seconds of blood drawing for all samples. The final concentrations in the reaction were 87.5% whole blood, INNOVIN® diluted 1:17,000, 0 or 100 μM polyP, 0 or added anticoagulant drug (0.1 U/mL unfractionated heparin or 2.7 μg/mL enoxaparin or 1 μg/mL argatroban, or 0.2 μg/mL rivaroxaban). The measurements were continued for 2 hours and the clot time (CT), clot formation time (CFT), alpha angle (α angle), and maximum clot firmness (MCF) were recorded as supplied by the ROTEM® software. Each anticoagulant drug was added in vitro to whole blood from 5 different individuals.
(§1) Statistical analyses were performed using SigmaStat statistical software version 2.03 (SPSS, Inc). In all cases, two-tailed t-tests were conducted at the 0.05 level of significance. Clot times obtained using the Dilute PT Test with and without added polyP in plasma-based experiments were compared using unpaired t-tests. Results for each variable obtained from the ROTEM® experiments (CT, CFT, a angle, MCF) were compared separately. For each group of anticoagulants, parameters obtained for control blood samples were compared to those for blood+polyP, blood+anticoagulant, and blood+anticoagulant+polyP. The latter two samples were also directly compared. To account for inter-individual variation, thromboelstography parameters were compared using paired t-tests.

[1] = cited from earlier work
pooled normal plasma = assay: Dilute PT Test, plasma clot time, anticoagulants added in vitro; assay type: biochemical, human
Protocol: (§2) The following describes the use of the Dilute PT Test to evaluate the effectiveness of polyP in treat hemophilia and reversing the effects of anticoagulant drugs. Anticoagulant drugs were added to pooled normal plasma in vitro at concentrations of up 1 U/mL for unfractionated heparin, 100 μg/mL for enoxaparin, 3 μg/mL for argatroban, and 1 μg/mL for rivaroxaban. Plasma from a patient deficient in FVIII was evaluated with and without the addition of up to 0.5 μg/mL FVIII or 20 nM FVIIa. Plasma from a patient deficient in FIX was evaluated with and without the addition of up to 4 μg/mL FIX or 20 nM FVIIa. INR values for samples from patients receiving COUMADIN® ranged from 1.7 to 4.8.
(§3) Plasma clots were formed in 96-well medium binding polystyrene microplates (Corning Inc., Corning, N.Y.). Plasma (80 μL) was added to the well and clotting was initiated by addition of 160 uL of clotting reagent. The clotting reagent consisted of RecombiPlasTin (as a source of tissue factor) diluted 200 fold (for normal and anticoagulated plasmas) or 8000 fold (for hemophilia plasmas) into buffer containing 100 μM phospholipid vesicles (20% phosphatidylserine and 80% phosphatidylcholine made by sonication), 12.5 mM CaCl2, 25 mM Tris HCl pH 7.4, 0.1% bovine serum albumin, and 150 mM NaCl. Clotting reagent was divided into reagent without added polyP and reagent with added 100 μM polyP75.
(§4) Clotting was evaluated by monitoring the change in turbidity (A405) for 1 hour at room temperature using Softmax software and a Spectramax microplate reader (Molecular Devices Corporation, Sunnyvale, Calif.). […] All assays were repeated 5 times.
as §1

[2] = test system: plasma from patients receiving COUMADIN®; assay: Dilute PT Test, plasma clot time, patients receiving COUMADIN; assay type: biochemical, human; settings: 7 patients, INR 1.7 to 4.8; polyP75 added in vitro
Protocol: as §2
Plasma clots were formed in 96-well medium binding polystyrene microplates (Corning Inc., Corning, N.Y.). Plasma (80 μL) was added to the well and clotting was initiated by addition of 160 uL of clotting reagent. […]
Clotting was evaluated by monitoring the change in turbidity (A405) for 1 hour at room temperature using Softmax software and a Spectramax microplate reader (Molecular Devices Corporation, Sunnyvale, Calif.). […]

factor V = factor V (Homo sapiens, UniProt P12259); assay: Studies with purified proteins: activation of factor V; assay type: biochemical
fibrinogen = molecular target: T1, fibrinogen (Homo sapiens, UniProt P02671+P02675+P02679); assay: Clot structure of thrombin cleaved fibrinogen; assay type: biochemical
T1 sequence (P02671 20-644 isoform P02671-2 limits assumed): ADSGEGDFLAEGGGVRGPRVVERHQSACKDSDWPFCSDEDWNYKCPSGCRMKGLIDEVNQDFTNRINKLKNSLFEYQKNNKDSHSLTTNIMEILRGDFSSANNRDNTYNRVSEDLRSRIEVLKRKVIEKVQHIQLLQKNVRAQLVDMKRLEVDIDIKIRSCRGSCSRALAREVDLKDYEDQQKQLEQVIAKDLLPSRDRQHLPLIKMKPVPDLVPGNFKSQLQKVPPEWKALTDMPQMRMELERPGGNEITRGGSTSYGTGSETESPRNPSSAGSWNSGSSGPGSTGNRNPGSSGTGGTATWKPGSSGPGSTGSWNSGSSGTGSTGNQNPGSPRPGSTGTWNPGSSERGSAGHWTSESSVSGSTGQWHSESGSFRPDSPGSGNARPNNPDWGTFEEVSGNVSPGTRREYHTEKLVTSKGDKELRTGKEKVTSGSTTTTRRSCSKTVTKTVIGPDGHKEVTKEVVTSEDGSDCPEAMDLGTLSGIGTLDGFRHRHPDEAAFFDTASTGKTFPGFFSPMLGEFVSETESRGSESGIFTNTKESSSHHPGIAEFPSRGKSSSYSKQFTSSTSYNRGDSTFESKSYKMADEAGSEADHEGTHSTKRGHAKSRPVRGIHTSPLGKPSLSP
T1 sequence (P02675 31-491): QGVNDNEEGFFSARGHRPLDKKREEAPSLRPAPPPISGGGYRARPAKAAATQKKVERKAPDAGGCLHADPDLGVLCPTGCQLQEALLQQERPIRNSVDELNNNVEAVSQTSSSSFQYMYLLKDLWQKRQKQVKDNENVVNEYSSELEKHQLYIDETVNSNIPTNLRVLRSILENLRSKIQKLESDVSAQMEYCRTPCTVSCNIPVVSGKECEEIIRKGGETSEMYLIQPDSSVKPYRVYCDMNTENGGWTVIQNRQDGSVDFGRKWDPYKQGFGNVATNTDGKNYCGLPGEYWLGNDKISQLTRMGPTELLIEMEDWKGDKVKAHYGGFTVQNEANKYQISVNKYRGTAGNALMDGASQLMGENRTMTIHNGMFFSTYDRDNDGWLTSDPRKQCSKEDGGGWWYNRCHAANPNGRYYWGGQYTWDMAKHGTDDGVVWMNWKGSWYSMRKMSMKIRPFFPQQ
T1 sequence (P02679 27-437 isoform P02679-2 limits assumed): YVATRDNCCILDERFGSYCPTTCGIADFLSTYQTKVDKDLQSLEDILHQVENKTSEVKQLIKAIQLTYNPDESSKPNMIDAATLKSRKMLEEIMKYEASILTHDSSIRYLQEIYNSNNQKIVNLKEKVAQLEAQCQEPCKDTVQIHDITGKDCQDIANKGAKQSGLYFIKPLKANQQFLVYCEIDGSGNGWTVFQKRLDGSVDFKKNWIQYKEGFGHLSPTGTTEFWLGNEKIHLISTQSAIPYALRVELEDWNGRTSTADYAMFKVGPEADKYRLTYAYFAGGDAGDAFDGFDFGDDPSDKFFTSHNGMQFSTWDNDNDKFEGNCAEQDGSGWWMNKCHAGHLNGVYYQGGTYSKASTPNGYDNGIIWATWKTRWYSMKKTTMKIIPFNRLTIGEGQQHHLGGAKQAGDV

[3] = test system: plasma from patients with hemophilia B (FIX<1%); assay: Dilute PT Test, plasma clot time, hemophilia B patients; assay type: biochemical, human
Protocol: as §2, §3, §4, §1

thrombin = thrombin (Homo sapiens, UniProt P00734); assay: Studies with purified proteins: inactivation of thrombin by antithrombin; assay type: biochemical
[4] = test system: plasma from patients with hemophilia A (FVIII<1%); assay: Dilute PT Test, plasma clot time, hemophilia A patients; assay type: biochemical, human
Protocol: as §2, §3, §4, §1

[5] = +Anticoagulant alone (0.1 U/mL unfractionated heparin, 2.7 μg/mL enoxaparin, 1 μg/mL argatroban or 0.2 μg/mL rivaroxaban)
[6] = +100 μM polyP, no anticoagulant, blood samples of the argatroban series
[7] = +100 μM polyP, no anticoagulant, blood samples of the enoxaparin series
[8] = +100 μM polyP, no anticoagulant, blood samples of the rivaroxaban series
[9] = +100 μM polyP, no anticoagulant, blood samples of the unfractionated heparin series
[10] = +Anticoagulant + polyP: 0.2 μg/mL rivaroxaban + 100 μM polyP
[11] = +Anticoagulant + polyP: 1 μg/mL argatroban + 100 μM polyP
[12] = +Anticoagulant + polyP: 2.7 μg/mL enoxaparin + 100 μM polyP
[13] = +Anticoagulant + polyP: 0.1 U/mL unfractionated heparin + 100 μM polyP

Chain of factor V (P12259 29-2224): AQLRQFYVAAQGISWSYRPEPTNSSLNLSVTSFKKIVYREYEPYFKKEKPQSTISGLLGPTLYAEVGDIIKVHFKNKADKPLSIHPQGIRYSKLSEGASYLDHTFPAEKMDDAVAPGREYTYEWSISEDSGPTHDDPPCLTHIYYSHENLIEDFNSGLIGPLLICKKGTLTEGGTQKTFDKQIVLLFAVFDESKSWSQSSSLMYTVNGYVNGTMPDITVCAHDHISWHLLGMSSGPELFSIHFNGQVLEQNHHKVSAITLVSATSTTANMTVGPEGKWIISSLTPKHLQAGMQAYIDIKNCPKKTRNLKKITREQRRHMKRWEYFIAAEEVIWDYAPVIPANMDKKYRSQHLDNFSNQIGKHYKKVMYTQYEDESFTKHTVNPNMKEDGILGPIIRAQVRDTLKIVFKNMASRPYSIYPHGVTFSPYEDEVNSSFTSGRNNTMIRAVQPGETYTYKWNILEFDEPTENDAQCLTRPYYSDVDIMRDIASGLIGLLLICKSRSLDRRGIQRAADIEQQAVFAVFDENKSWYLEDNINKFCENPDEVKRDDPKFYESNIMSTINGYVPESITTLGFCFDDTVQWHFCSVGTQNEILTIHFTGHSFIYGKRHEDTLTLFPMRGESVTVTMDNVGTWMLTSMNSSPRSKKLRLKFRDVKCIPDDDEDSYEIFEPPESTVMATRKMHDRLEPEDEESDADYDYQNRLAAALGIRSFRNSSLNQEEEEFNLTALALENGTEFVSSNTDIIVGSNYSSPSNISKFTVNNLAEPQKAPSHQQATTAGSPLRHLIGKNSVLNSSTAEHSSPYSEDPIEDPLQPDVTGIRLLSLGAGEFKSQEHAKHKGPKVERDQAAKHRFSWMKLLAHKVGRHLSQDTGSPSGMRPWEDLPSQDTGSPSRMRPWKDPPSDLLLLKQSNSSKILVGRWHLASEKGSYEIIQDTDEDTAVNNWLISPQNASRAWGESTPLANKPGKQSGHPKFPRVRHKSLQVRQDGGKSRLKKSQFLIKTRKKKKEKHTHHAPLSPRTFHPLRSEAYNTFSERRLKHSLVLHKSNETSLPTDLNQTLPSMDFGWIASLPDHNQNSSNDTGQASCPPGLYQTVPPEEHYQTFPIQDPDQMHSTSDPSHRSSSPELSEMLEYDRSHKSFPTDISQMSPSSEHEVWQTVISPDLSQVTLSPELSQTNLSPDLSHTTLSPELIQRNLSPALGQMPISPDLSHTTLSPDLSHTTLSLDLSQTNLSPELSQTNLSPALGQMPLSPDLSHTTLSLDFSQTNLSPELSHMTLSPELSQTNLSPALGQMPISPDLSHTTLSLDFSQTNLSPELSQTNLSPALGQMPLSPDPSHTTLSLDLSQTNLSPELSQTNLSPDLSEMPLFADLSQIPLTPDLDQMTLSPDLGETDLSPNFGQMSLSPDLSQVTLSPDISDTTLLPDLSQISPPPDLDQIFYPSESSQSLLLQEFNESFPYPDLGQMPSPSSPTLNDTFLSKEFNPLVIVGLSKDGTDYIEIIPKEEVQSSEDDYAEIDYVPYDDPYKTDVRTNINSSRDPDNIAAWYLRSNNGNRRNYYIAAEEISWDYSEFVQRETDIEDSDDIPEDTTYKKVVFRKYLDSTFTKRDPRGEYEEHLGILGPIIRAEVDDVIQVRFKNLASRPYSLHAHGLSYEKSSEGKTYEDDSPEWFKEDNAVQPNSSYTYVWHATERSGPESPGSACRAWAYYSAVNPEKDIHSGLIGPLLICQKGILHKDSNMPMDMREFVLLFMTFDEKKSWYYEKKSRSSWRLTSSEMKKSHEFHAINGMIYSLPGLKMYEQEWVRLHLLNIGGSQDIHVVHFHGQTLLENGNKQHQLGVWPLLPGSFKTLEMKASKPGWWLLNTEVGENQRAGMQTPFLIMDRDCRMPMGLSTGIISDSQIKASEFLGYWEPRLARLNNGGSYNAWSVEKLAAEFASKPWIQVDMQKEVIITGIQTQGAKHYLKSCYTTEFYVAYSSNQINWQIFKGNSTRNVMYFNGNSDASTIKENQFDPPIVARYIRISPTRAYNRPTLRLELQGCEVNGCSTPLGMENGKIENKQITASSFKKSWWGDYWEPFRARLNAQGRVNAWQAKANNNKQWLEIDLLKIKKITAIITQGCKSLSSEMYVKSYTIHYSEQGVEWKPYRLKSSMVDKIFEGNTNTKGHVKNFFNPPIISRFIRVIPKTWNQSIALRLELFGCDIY

O=C(NC[C@H]1CN(c2ccc(N3CCOCC3=O)cc2)C(=O)O1)c1ccc(Cl)s1 [Rivaroxaban, reference compound]
MCF (fresh whole blood; [5]): 54.8 mm
α angle (fresh whole blood; [5]): 47.6 °
plasma half-life ([1]; in a patient): 7 to 10 h

CC1CNc2c(cccc2S(=O)(=O)N[C@@H](CCCNC(=N)N)C(=O)N2CC[C@@H](C)C[C@@H]2C(=O)O)C1 (some centres unmarked) [Argatroban, reference compound]
MCF (fresh whole blood; [5]): 49.4 mm
α angle (fresh whole blood; [5]): 38.8 °
therapeutic plasma concentration ([1]; human, in vivo): about 1 μg/ml

Polyphosphate
reversal of the effective dose of heparins (pooled normal plasma; both types of heparin, decreased slope of the dose-response curve, 67 μM polyP75): approximately 50%
shortening of clot time by polyP (pooled normal plasma; plasma with low molecular weight heparin (enoxaparin), all concentrations evaluated (20-100 μg/mL), 67 μM polyP75): approximately 50%
shortening of clot time by polyP (pooled normal plasma; plasma with rivaroxaban, all concentrations tested (0.2-1 μg/mL), 67 μM polyP75): approximately 80%
argatroban level giving equivalent prolongation of clot time (pooled normal plasma; plasma with supratherapeutic argatroban (1-3 μg/ml) + polyP): less than 0.5 μg/ml
shortening of clot time by polyP (pooled normal plasma; plasma with unfractionated heparin, all concentrations evaluated (0.2-1 U/mL), 67 μM polyP75): approximately 50%
effect on anticoagulant effect of drugs added in vitro to normal plasma (pooled normal plasma; unfractionated heparin, enoxaparin, argatroban, rivaroxaban, 67 μM polyP75): antagonized the anticoagulant effect of all four drugs
effect on plasma clot time [2]: shortened, but did not completely normalize
effect on activation of factor V by thrombin or factor Xa (factor V): accelerate the activation of factor V
effect on fibrin clot structure (fibrinogen): thicker fibrin fibers that are more resistant to fibrinolysis
effect on plasma clot time ([3]; 4 patients with severe hemophilia B, polyP75 added in vitro): decreased the plasma clot time
shortening of plasma clot time compared with factor replacement ([3]; FIX deficiency, polyP alone vs FIX restored to normal plasma concentration): greater degree than did restoring the missing clotting factor
procoagulant effect in combination with rFVIIa ([3]; FIX-deficient plasma, all rFVIIa concentrations evaluated): additive
rFVIIa concentration giving similar shortening of plasma clot time ([3]; FIX-deficient plasma, polyP alone): ~6 nM
clotting of patient plasma with polyP compared with pooled normal plasma ([3]; severe hemophilia B plasma in the presence of polyP): clotted more rapidly than did pooled normal plasma without polyP
effect on ability of antithrombin to inactivate thrombin (thrombin): neither enhanced nor blocked
effect on ability of heparin to accelerate inactivation of thrombin by antithrombin (thrombin): did not enhance or block
MCF (fresh whole blood; [6]): 62.2 mm
α angle (fresh whole blood; [6]): 69.0 °
MCF (fresh whole blood; [7]): 64.8 mm
α angle (fresh whole blood; [7]): 71.0 °
MCF (fresh whole blood; [8]): 64.0 mm
α angle (fresh whole blood; [8]): 70.0 °
MCF (fresh whole blood; [9]): 63.0 mm
α angle (fresh whole blood; [9]): 69.6 °
MCF (fresh whole blood; [10]): 63.6 mm
α angle (fresh whole blood; [10]): 67.4 °
MCF (fresh whole blood; [11]): 59.4 mm
α angle (fresh whole blood; [11]): 56.4 °
MCF (fresh whole blood; [12]): 59.8 mm
α angle (fresh whole blood; [12]): 60.4 °
MCF (fresh whole blood; [13]): 52.4 mm
α angle (fresh whole blood; [13]): 46.8 °
effect of polyP on CT, in words (fresh whole blood; blood containing argatroban): shortened but did not entirely normalize
effect of polyP on thromboelastography parameters, in words (fresh whole blood; blood containing enoxaparin): normalized all parameters
effect of polyP on thromboelastography curve, in words (fresh whole blood; blood containing rivaroxaban): complete reversal of anticoagulation
effect of polyP on CT, in words (fresh whole blood; blood containing unfractionated heparin): shortened, but did not completely normalize
effect on plasma clot time ([4]; 5 patients with severe hemophilia A, polyP75 added in vitro): decreased the plasma clot time
shortening of plasma clot time compared with factor replacement ([4]; FVIII deficiency, polyP alone vs FVIII restored to normal plasma concentration): greater degree than did restoring the missing clotting factor
procoagulant effect in combination with rFVIIa ([4]; FVIII-deficient plasma, all rFVIIa concentrations evaluated): additive
rFVIIa concentration giving similar shortening of plasma clot time ([4]; FVIII-deficient plasma, polyP alone): ~15 nM
clotting of patient plasma with polyP compared with pooled normal plasma ([4]; severe hemophilia A plasma in the presence of polyP): clotted more rapidly than did pooled normal plasma without polyP
